In article PMC12040169 (PLOS Biology, 2025) one finds viability data, which are given here for 82 compounds.

This data set is described as follows: in vitro. The settings on record: human, hela cells, % viability.
With `CCN(Cc1ncc[nH]1)[C@H]1CCO[C@@H](c2ccccc2-c2ccc(OC)cc2)C1` [CBK285842], the viability at 28.5 h, 10 µM worked out at 104%. The result for `CC(=O)Nc1cccc(CN2CCCC(CO)C2)c1` (stereo not shown) [CBK305527] reads 91.9%; that for `CCc1cccc2c1Sc1ccccc1CC2N1CCN(C)CC1` (stereo not shown) [CBK026248G], 103%; that for `O=C1Cc2cc3ccccc3cc2C2(CCN(CCC(F)=C(F)F)CC2)N1` [CBK040033], 94.6%. Turning to `CN1CCC(Oc2ncccc2OCc2ccccc2)CC1` [CBK036311], the viability at 28.5 h, 10 µM worked out at 97.4%. The result for `CC(C)N1CCC(C(=O)NC(=O)NCCOc2cccc3ccccc23)CC1` [CBK034807] reads 91.9%. For `Cc1c(Cl)cccc1S(=O)(=O)Nc1nc(CSc2ccccn2)ns1` [CBK200054], the viability at 28.5 h, 10 µM stood at 97.2%. In the case of `COc1ccc(OCc2nc(C)cc(=O)n2CC(=O)NC(C)C)cc1` [CBK300525], the viability at 28.5 h, 10 µM was determined as 99%. The result for `COc1ccc(CCN2CCN(c3nccnc3OCc3cc(C)on3)CC2)cc1OC` [CBK084207] reads 105%. Take `c1csc(CNc2nccnc2-c2cccs2)c1` [CBK036602]: the viability at 28.5 h, 10 µM was determined as 92.6%.

As to `CC1=C[C@@H](CNC(=O)c2ccccn2)[C@H](C(C)C)C[C@H]1CC(=O)O` [CBK289212], the viability at 28.5 h, 10 µM was 87.5%.

Consider `N#C/N=C(/Nc1cccnc1)Oc1ccccc1` [CBK012612], for which the viability at 28.5 h, 10 µM came out at 87.3%. Consider `CCC1(CC)OC(N[C@@H](CO)c2ccccc2)=NC1=O` [CBK126756], for which the viability at 28.5 h, 10 µM is 92.8%.

Consider `CSc1ncc(CNC(=O)Nc2ccc3c(c2)CCC3)n1C` [CBK306996], for which the viability at 28.5 h, 10 µM was determined as 107%.

Consider `Cc1n[nH]c(O)c1C(c1ccc(Br)o1)c1c(C)n[nH]c1O` [CBK026150], for which the viability at 28.5 h, 10 µM turned out to be 102%.

Turning to `COC(=O)c1ccc2c(c1)[n+](CCO)c(C)n2CCO` [CBK262443C], the viability at 28.5 h, 10 µM is 88.1%. The result for `CNCCc1ccccc1Sc1ccccc1` [CBK027155G] reads 102%; that for `Cc1cc2c(cc3c(=O)n(CC(=O)OC(C)C)nc(C)n32)s1` [CBK284071], 98.6%; that for `CCN(Cc1ccncc1)C(=O)NCCc1ccc(OC)cc1` [CBK155149], 94.6%. The result for `O=C(CCCn1nnc2ccccc2c1=O)NCc1cccc(Cl)c1` [CBK294446] reads 82.8%; that for `OCCc1ccc(Nc2cc(-c3ccc4c(c3)OCO4)ncn2)cc1` [CBK090767], 97.8%; that for `Cc1c(C(=O)N2CCC(c3nc(C)n4ccsc34)CC2)cnn1C` [CBK285201], 111%. The result for `CN(C)C(=O)c1ccc(Cn2ccnc(N3CCC(Sc4ccccc4)CC3)c2=O)cc1` [CBK153651] reads 107%; that for `O=C(COc1ccccc1)Nc1ccccc1CO` [CBK263596], 97.9%; that for `O=C(CN1CCN(Cc2ccc3c(c2)OCO3)CC1)Nc1ccc(SC(F)(F)F)cc1` [CBK074385], 108%.

On to `CCN(Cc1ccccc1)C(=O)NCc1cnc(C)cn1` [CBK155218], for which the viability at 28.5 h, 10 µM came out at 107%. Next, `Cc1cc(NC(=O)C(C)(C)Oc2ccc(Cl)cc2)nc2c1c(=O)oc1ccccc12` [CBK291132]: 112%; `CC1Oc2ccccc2OC1C(=O)Nc1nnc(Cc2ccccc2)s1` (stereo not shown) [CBK295634]: 90.5%.

In the case of `CN(C)CCNC(=O)c1cc(-c2cccnc2)nc2c(Cl)cccc12` [CBK267761], the viability at 28.5 h, 10 µM came to 112%. On to `CN1CCN(C(=O)CNC(=O)CNS(=O)(=O)c2ccccc2)CC1` [CBK268651], for which the viability at 28.5 h, 10 µM was determined as 90.9%.

In the case of `O=C(Nc1cccc(N2CCCC2=O)c1)c1ccccc1Nc1ccccc1` [CBK297729], the viability at 28.5 h, 10 µM was determined as 85.8%. Next, `O=S(=O)(c1ccc2ccccc2c1)N1CCN(C2CCCCCCC2)CC1` [CBK264186G]: 98.3%; `CSCC(CSC)OC(=O)Nc1ccc(Cl)cc1` [CBK086154]: 93.9%. The result for `Cc1ccc(Cn2c(=N)n(CC(=O)c3ccc(Br)cc3)c3ccccc32)cc1` [CBK262979B] reads 94%. The result for `COc1cccc(CC(=O)N2C3CCC2CC(O)(c2ccco2)C3)c1` (stereo not shown) [CBK284053] reads 80.5%; that for `CCc1cnc(CN(C)C2CCN(CC(=O)Nc3cccnc3)C2)o1` (stereo not shown) [CBK305358], 92%; that for `C=Cn1ncc(CN(Cc2ccc(C)o2)CC2CCCO2)c1C` (stereo not shown) [CBK283292], 101%. Regarding `COc1ccc(C)cc1S(=O)(=O)N(C)CC(=O)Nc1cccc(C(C)=O)c1` [CBK268753], the viability at 28.5 h, 10 µM amounted to 102%. In the case of `CN(C)CCNC1CS(=O)(=O)CC1O` (stereo not shown) [CBK059025], the viability at 28.5 h, 10 µM came to 84.8%. Next, `O=C(O)Cc1sc(-c2ccc3c(c2)OCO3)nc1-c1ccccc1` [CBK200114]: 87.3%; `O=C(CSCc1ccccc1Cl)NNC(=O)c1cccnc1` [CBK267826]: 113%; `C[C@@H]1C[C@H](Nc2ccccc2)c2ccccc2N1C(=O)CCC(=O)O` [CBK286820]: 95.8%. Next, `Nc1ccc2ccc(-c3ccc4c(c3)CCO4)nc2n1` [CBK067625]: 90%. For `Cn1cnc([N+](=O)[O-])c1Oc1ccccc1OCc1ccccc1` [CBK002747], the viability at 28.5 h, 10 µM was 91.7%. Regarding `COc1ccc(CCNc2c(Cc3ccccc3)c(C)c(C#N)c3nc4ccccc4n23)cc1OC` [CBK263135], the viability at 28.5 h, 10 µM stood at 93%.

Take `COc1ccccc1-c1cnc(N)c(N[C@@H](CO)C(C)C)n1` [CBK063749]: the viability at 28.5 h, 10 µM worked out at 101%. Next, `CCC(C(=O)N1CCC(O)(c2ccccn2)CC1)c1ccccc1` (stereo not shown) [CBK283768]: 93.1%; `COc1ccccc1N1CCN(CC(CC(=O)Nc2ccc3c(c2)OCO3)C(=O)O)CC1` (stereo not shown) [CBK286822]: 95%. The result for `O=C(O)CCCN1C(=O)/C(=C/c2ccc(O)c(O)c2)SC1=S` [CBK262852] reads 84.9%. For the compound `c1ccc(-c2nnc(SCc3nnc(-c4ccccc4)o3)[nH]2)cc1` [CBK270003], the viability at 28.5 h, 10 µM was 104%. Next, `Cn1c(SCC(=O)Nc2c(F)cc(F)cc2Br)nnc1-c1cccnc1` [CBK267583]: 90.8%; `CC(C)N(C(=O)c1ccccc1-c1cnc2nncn2c1)C(C)C` [CBK306701]: 99.8%. The result for `Cc1cc(C(=O)N2CCn3cnnc3C2)c(C2CC2)o1` [CBK282059] reads 115%; that for `O=C(c1ccc(-n2ccnc2)c(-n2cccc2)c1)N1CCSCC1` [CBK285364], 97.4%; that for `Cc1sc(NC(=O)CN2CCOCC2)c(C(=O)c2ccccc2)c1C` [CBK263346], 109%. Next, `CC1(C(=O)O)CCC(C(=O)Nc2ccc(F)cc2)C1(C)C` (stereo not shown) [CBK286953]: 98.8%. For the compound `CN(C)C(=O)c1cc(-c2ccccc2)cnc1N(C)S(C)(=O)=O` [CBK076473], the viability at 28.5 h, 10 µM amounted to 105%. The result for `O=C(COc1ccc(S(=O)(=O)NC2CCCCC2)cc1)Nc1ccc2c(c1)OCO2` [CBK265960] reads 84.5%; that for `Cc1occc1-c1nn(C2CCNCC2)c(=O)o1` [CBK284757], 98.5%; that for `CC(C)N(C(=O)Cn1c(C(F)F)cc2cccnc21)C(C)C` [CBK285009], 100%. The result for `O=P(O)(CN1CCCCC1)C1CCCCC1O` (stereo not shown) [CBK262325] reads 87.1%; that for `Cc1cc(F)c(S(N)(=O)=O)cc1NC(=O)c1cccc(Br)c1` [CBK051488], 90.9%.

On to `CC(NC(=O)CSCc1ccco1)c1ccccc1` (stereo not shown) [CBK283237], for which the viability at 28.5 h, 10 µM came out at 100%. The result for `CCC(Oc1cc(C)ccc1Cl)C(=O)Nc1sccc1C(N)=O` (stereo not shown) [CBK268152] reads 105%; that for `COc1ccc(-c2nc(NC(=O)c3ccco3)cnc2-c2cccc(C)c2)cn1` [CBK036954], 96.8%. Consider `Cn1c(CN2CCN(c3ccc(C#N)cn3)CC2)nnc1C1CC1` [CBK304781], for which the viability at 28.5 h, 10 µM was determined as 92.5%. Next, `O=C(O)CCc1ccc(-c2ccc(F)cc2)n1-c1cc(Cl)ccc1O` [CBK131891]: 92%.

`Cc1nnc2sc(-c3cccc4ccccc34)nn12` [CBK269185]: the viability at 28.5 h, 10 µM turned out to be 39.8%. Next, `Cc1sc2ncnc(NCCOCCO)c2c1C` [CBK265907]: 104%. Next, `O=C(O)CC/C(=N\Nc1ccc([N+](=O)[O-])cc1)c1ccc(F)cc1` [CBK017075]: 110%. In the case of `COC(=O)c1ccc(NC(=O)c2c(Br)c(Br)c(Br)c(Br)c2C(=O)O)cc1` [CBK261321], the viability at 28.5 h, 10 µM is 100%.

As for `O=C(O)CC(C(=O)O)N1C(=O)/C(=C2/C(=O)Nc3ccc(Br)cc32)SC1=S` (stereo not shown) [CBK261791], the viability at 28.5 h, 10 µM stood at 104%.

With `Cc1cc(O)ccc1-c1cncc(-c2ccc(O)cc2C)n1` [CBK115689], the viability at 28.5 h, 10 µM was determined as 90.5%. In the case of `c1ccc2c(Sc3cc(N4CCCC4)ncn3)cccc2c1` [CBK089538], the viability at 28.5 h, 10 µM came out at 94.2%. Next, `CSc1nnc(CC2CCN(C(=O)c3ccc(C)cc3F)CC2)n1C` [CBK306939]: 105%; `CCN1C(=O)c2ccccc2C(=O)[C@@]2(C)CN(CC(C)C)C[C@@H]12` [CBK283479]: 102%; `Cc1nn(C)c(N2CCNCC2)c1NC(=O)C(C)c1ccccc1` (stereo not shown) [CBK045929T]: 108%. Take `CCC(=O)Nc1ccc(-n2cnc(C(=O)NCc3cccnc3)c2)nc1` [CBK288603]: the viability at 28.5 h, 10 µM worked out at 115%. The result for `O=C(C1CCC1)N1C2CCC1CC(O)(c1ccc(F)cc1)C2` (stereo not shown) [CBK283547] reads 92.5%. Next, `Cn1c(NC(=O)COc2ccccc2)nc2ccccc21` [CBK269783]: 98.7%; `Cc1cc(C)nc(SCCN2CCOCC2)n1` [CBK261769C]: 93.8%. The result for `CN1C[C@@H](C(=O)N(C)C)[C@@]2(CCc3ccccc3C(=O)N2)C1` [CBK284792] reads 102%.
